# System: CHO cells expressing a trap protein (receptor-Fc fusion protein, VEGF-trap)
# Conditions: 36.6 mg/L putrescine; VEGF-trap from CHO cells
compound,measurement,value
"NCCCCN [putrescine, 1,4-Diaminobutane]",Al N-Glycan relative amount (% area under the curve),9.0 % area under the curve
